# Source: patent US6673364B1, “Liposome having an exchangeable component” (The University of British Columbia, priority 1995, dated 2004)
# Tests used:
# [1] = Lipid mixing (FRET) assay, NaCl-induced fusion of DOPE:DODAC liposomes; details: DOPE:DODAC:PEG-lipid 83:15:2, 300 mM NaCl, POPC sink
# Procedure: (§1) Lipid mixtures were prepared as described for NMR measurements. The resultant multilamellar vesicles (MLV) were frozen in liquid nitrogen and then thawed at 30° C. five times. Large unilamellar vesicles (LUV) were produced by extrusion of the frozen and thawed MLV ten times through 2 stacked polycarbonate filters of […] pore size at 30° C. and pressures of 200-500 psi (Hope, et al., Biochim. Biophys. Acta 812:55-65 (1985)).
# Lipid mixing was measured by a modification of the fluorescence resonance energy transfer (FRET) assay of Struck, et al. (Biochemistry 20:4093-4099 (1981)). […] Fluorescence emission intensity was measured at 517 nm with excitation at 465 nm both before and after the addition of Triton X-100 (final concentration of 0. 5% or 1% when POPC sink was used). Data is presented as either uncorrected fluorescence intensity for short term assays (<1 hour) or as percentage fusion. […] Maximum fusion was determined using mock fused vesicles containing 0.125 mol % of each fluorescent probe. The percentage fusion was calculated as: [formula]
# where F(t)=fluorescence intensity at time t; Fo=fluorescence intensity at zero time; FT=fluorescence intensity in the presence of Triton X-100. […]
# [2] = 31P-NMR phase preference of equimolar DOPE:cholesterol mixtures with bilayer stabilizing component (BSC); type: physicochemical
# Procedure: Lipid components were mixed in 1-2 ml of benzene:methanol (95:5, v/v) and then lyophilized for a minimum of 5 hours at a pressure of <60 millitorr using a Virtis lyophilizer equipped with a liquid N2 trap. Multilamellar vesicles (MLVs) were prepared by hydrating the dry lipid mixtures in 150 mM NaCl, buffered with 10 mM Hepes-NaOH, pH 7.4 (Hepes-buffered saline, HBS). Mixtures were vortexed to assist hydration. To produce large unilamellar vesicles (LUVs), MLVs were first frozen in liquid nitrogen and then thawed at 30° C. five times. LUVs were produced by extrusion of the frozen and thawed MLVs ten times through 2 stacked polycarbonate filters of 100 nm pore size at 30° C. and pressures of 200-500 psi (Hope, et al., Biochim. Biophys. Acta, 812:55-65 (1985)).
# ^31P-NMR spectra were obtained using a temperature controlled Bruker MSL200 spectrometer operating at 81 MHz. Free induction decays were accumulated for 2000 transients using a 4 μs, 90° pulse, 1 sec. interpulse delay, 20 KHz sweep width and Waltz decoupling. A 50 Hz line broadening was applied to the data prior to Fourier transformation. Samples were allowed to equilibrate at the indicated temperature for 30 minutes prior to data accumulation. Lipid concentrations of 30-70 mM were used.
# [3] = Lipid mixing (FRET) assay, Ca2+-induced fusion of PE:PS LUVs
# Procedure: as §1
# Lipid mixing was measured by a modification of the fluorescence resonance energy transfer (FRET) assay of Struck, et al. (Biochemistry 20:4093-4099 (1981)). LUVs were prepared containing the fluorescent lipids, N-(7-nitro-2-1,3-benzoxadiazol-4-yl)-dioleoylphosphatidylethanolamine (NBD-PE) and N-(lissamine rhodamine B sulfonyl)-dipalmitoylphosphatidylethanolamine (Rh-PE) at 0.5 mol %. LUVs (50-60 μM) and a three-fold excess of unlabelled target vesicles were mixed in the fluorimeter at 37° C. for short term assays (≦1 hour), or in sealed cuvettes in a dark water bath at 37° C. for longer assays. For measurements of fusion after PEG-lipid transfer, an excess of liposomes prepared from 1-palmitoyl-2-oleoyl-phosphatidylcholine (POPC) was added as a sink for the PEG-lipid. Fluorescence emission intensity was measured at 517 nm with excitation at 465 nm both before and after the addition of Triton X-100 (final concentration of 0. 5% or 1% when POPC sink was used). Data is presented as either uncorrected fluorescence intensity for short term assays (<1 hour) or as percentage fusion. Light scattering controls were performed by replacing LUVs labelled with 0.5 mol % probes with unlabelled vesicles. Maximum fusion was determined using mock fused vesicles containing 0.125 mol % of each fluorescent probe. The percentage fusion was calculated as: [formula]
# where F(t)=fluorescence intensity at time t; Fo=fluorescence intensity at zero time; FT=fluorescence intensity in the presence of Triton X-100. M and L represent the same measurements for the mock fused control and the light scattering control respectively.
# [4] = PE:PS LUVs, 2 mol % PE-PEG2000, POPC sink
substance,measurement,setting,value
1-O-methyl-(poly(ethoxy)-O-succinyl-O-(egg)ceramide [egg ceramide-PEG2000],time for 50% maximal fusion,[1]; 37° C.,over 20 hr
same,phase preference (31P-NMR),"[2]; DOPE:cholesterol:BSC 1:1:0.1, 0 to 60° C.",both bilayer and HII phase lipid are in evidence at most temperatures
same,phase preference (31P-NMR),"[2]; equimolar DOPE:cholesterol, BSC 20 mol % of phospholipid (1:1:0.25)",exclusively bilayer up to 60 °C
PEG2000 conjugated to dimyristoylphosphatidylethanolamine [DMPE-PEG2000],extent of fusion at 21 hr,[1],< 20 % of maximum
same,time delay (lag phase) prior to fusion,"[3]; 2, 3, 5 or 10 mol % PEG-lipid, 36fold excess POPC liposomes",increase in the time delay prior to fusion with increasing PEG-lipid concentration
same,concentration sufficient to eliminate (completely inhibit) Ca2+-induced fusion,"[3]; PE:PS (1:1) LUVs, 5 mM Ca2+, 37° C.",2 mol %
same,time at which fusion was essentially complete,[3]; [4],40 min
PEG2000 conjugated to dipalmitoylphosphatidylethanolamine [DPPE-PEG2000],time at which fusion was essentially complete,[3]; [4],1440 min
same,implied decrease in rate of transfer (acyl chains 14 to 16 carbons),[3]; relative to DMPE-PEG2000,30-40 fold
PEG2000 conjugated to distearoylphosphatidylethanolamine [DSPE-PEG2000],level of fusion after 24 hours,[3]; [4],20 % of maximum
